Experimental data from patent publication US20260042770A1, “NOVEL SULFONES AND THEIR USE AS NEUROPROTECTIVE AND/OR NEURORESTORATIVE AGENTS” (GENECODE, priority 2022, published 2026).

Target: T1, GFRα1-RET (Homo sapiens, UniProt P56159)
T1 construct: expressed in transfected cells; host or cells: MG87 murine fibroblasts stably transfected with PathDetect Elk-1, GFRα1 and RET
T1 sequence (P56159 25-429 limits assumed): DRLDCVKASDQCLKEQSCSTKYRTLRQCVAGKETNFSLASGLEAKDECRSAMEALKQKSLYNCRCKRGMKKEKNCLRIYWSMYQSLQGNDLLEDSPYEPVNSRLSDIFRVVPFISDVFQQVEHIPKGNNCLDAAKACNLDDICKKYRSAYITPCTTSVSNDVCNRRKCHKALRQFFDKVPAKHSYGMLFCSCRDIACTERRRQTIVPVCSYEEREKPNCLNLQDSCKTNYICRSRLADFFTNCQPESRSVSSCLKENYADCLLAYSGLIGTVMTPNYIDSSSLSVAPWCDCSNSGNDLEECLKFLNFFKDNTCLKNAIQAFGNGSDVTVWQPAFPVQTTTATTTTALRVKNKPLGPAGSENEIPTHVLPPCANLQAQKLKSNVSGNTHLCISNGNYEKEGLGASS
Experiment: Elk1 luciferase reporter-gene assay in cells expressing GFRα1-RET
Type: cell-based
Settings: agonist/activator activity of Elk1 signaling; MG87 murine fibroblast stably transfected with PathDetect Elk-1, GFRα1 and RET; 6 concentrations, duplicate, two independent runs
Protocol: For EC50 determination, a dose-response test was performed using 6 concentrations of each tested compound. Dose-response curves were fitted using the sigmoidal dose-response (variable slope) analysis in GraphPad Prism program (Graph Pad Inc) and EC50 of agonist/activator activity was calculated. Dose-response experiments were all performed in duplicate, two times independently.

SMILES: COc1ccc(S(=O)(=O)C(C)C)cc1N1CCN(C(=O)c2ccc(F)cc2Cl)CC1 [Cpd 008, (2-chloro-4-fluoro-phenyl)-[4-(5-isopropylsulfonyl-2-methoxy-phenyl)piperazin-1-yl]methanone]
- EC50: 10 to 50 µM

SMILES: COc1ccc(S(=O)(=O)CC2CC2)cc1N1CCN(C(=O)c2ccc(F)cc2Cl)CC1 [Cpd 009, (2-chloro-4-fluoro-phenyl)-[4-[5-(cyclopropylmethylsulfonyl)-2-methoxy-phenyl]piperazin-1-yl]methanone]
- EC50: 1 to 10 µM

SMILES: COc1ccc(S(=O)(=O)CC(C)C)cc1N1CCN(C(=O)c2ccc(F)cc2C(F)(F)F)CC1 [Cpd 018, [4-fluoro-2-(trifluoromethyl)phenyl]-[4-(5-isobutylsulfonyl-2-methoxy-phenyl)piperazin-1-yl]methanone]
- EC50: 10 to 50 µM

SMILES: CCC(C)S(=O)(=O)c1ccc(OC)c(N2C3CCC2CN(C(=O)c2ccc(F)cc2Cl)C3)c1 (racemic) [Cpd 022, (2-chloro-4-fluoro-phenyl)-[(1S,5R)-8-[2-methoxy-5-[(1SR)-1-methylpropyl]sulfonyl-phenyl]-3,8-diazabicyclo[3.2.1]octan-3-yl]methanone]
- EC50: 1 to 10 µM

SMILES: CC(C)(C)CS(=O)(=O)c1cc(Cl)c(Cl)c(N2[C@@H]3CC[C@H]2CN(C(=O)c2ccc(F)cc2Cl)C3)c1 [Cpd 035, (2-chloro-4-fluoro-phenyl)-[(1S,5R)-8-[2,3-dichloro-5-(2,2-dimethylpropylsulfonyl)phenyl]-3,8-diazabicyclo[3.2.1]octan-3-yl]methanone]
- EC50: < 1 µM

SMILES: CC(C)(C)CS(=O)(=O)c1cc(Cl)c(OCCO)c(N2[C@@H]3CC[C@H]2CN(C(=O)c2ccc(F)cc2Cl)C3)c1 [Cpd 034, [(1S,5R)-8-[3-chloro-5-(2,2-dimethylpropylsulfonyl)-2-(2-hydroxyethoxy)phenyl]-3,8-diazabicyclo[3.2.1]octan-3-yl]-(2-chloro-4-fluoro-phenyl)methanone]
- EC50: 1 to 10 µM

SMILES: CC(C)(C)CS(=O)(=O)c1cc(Cl)c(O)c(N2[C@@H]3CC[C@H]2CN(C(=O)c2ccc(F)cc2Cl)C3)c1 [Cpd 033, [(1S,5R)-8-[3-chloro-5-(2,2-dimethylpropylsulfonyl)-2-hydroxy-phenyl]-3,8-diazabicyclo[3.2.1]octan-3-yl]-(2-chloro-4-fluoro-phenyl)methanone]
- EC50: < 1 µM
